Measurements taken from US20240058318A1, “DEGRADING PKCB1 TO TREAT CANCER” (Mayo Foundation for Medical Education and Research, priority 2020, published 2024).
Values joined by “and” are separate entries in the source; they are usually repeats but may differ in a detail not shown here. Equal values may be shown once.

Assay: Pharmacokinetics in mice, plasma by UPLC-MS/MS
Assay type: in vivo, female CD1 mice
Conditions: for Concentration ENDX PROTAC 7: mouse plasma
Procedure: ENDX PROTAC 7 and PROTAC 9 pharmacokinetics were characterized in female CD1 mice. Blood samples were collected from mice anesthetized under isoflurane via retro-orbital eye bleed into tubes containing EDTA and immediately chilled on ice. NaF was added to the EDTA collection tubes to help stabilize the drug in whole blood for the second IV and IP studies with ENDX PROTAC 9, and for the IV and oral studies with PROTAC 7. Plasma and red blood cells were separated immediately by centrifugation in a refrigerated centrifuge at 4° C. The plasma was transferred to a separate tube and immediately frozen at −20° C.
For IV dosing, ENDX PROTAC 9 was dissolved in 10% DMSO, 10% PEG 400, and 80% normal saline for a final concentration of 0.2 mg/mL ENDX PROTAC 9 for the 1 mg/kg IV doses. ENDX PROAC 7 was dissolved in 15% DMSO, 9.44% PEG400, and […] normal saline for a final concentration of 0.19 mg/mL for the 1 mg/kg IV doses. Blood samples (3 mice per time-point) were collected 5 minutes, 15 minutes, 0.5 hour, 1 hour, 2 hours, 4 hours, 8 hours, and 24 hours after administration of the ENDX PROTAC. A second IV study was performed for ENDX PROTAC 9 in which blood samples (3 mice per time-point) were collected 5 minutes, 15 minutes, 1 hour, and 2 hours after administration of ENDX PROTAC 9. For oral dosing, ENDX PROTAC 9 (10 mg/kg) and ENDX PROTAC 7 (10 mg/kg) were suspended in 1 mM ascorbic acid:PEG400, 1:1 v/v for a final concentration of 1.0 mg/mL ENDX PROTAC. Blood samples (three mice per time-point) were collected 15 minutes, 0.5 hour, 1 hour, 2 hours, 4 hours, 6 hours, 8 hours, and 24 hours after administering the ENDX PROTAC. For LP. dosing, ENDX PROTAC 9 (4 mg/kg) was prepared in 1 mM ascorbic acid:PEG400, 1:1 v/v for a final concentration of 0.4 mg/mL ENDX PROTAC 9. Blood samples (three mice per time-point) were collected 15 minutes, 0.5 hour, 1 hour, 2 hours, 4 hours, 6 hours, 8 hours, and 24 hours after administration. Plasma concentrations of ENDX PROTAC 7 and 9 were measured using UPLC-MS/MS.

[1] = mice, oral 10 mg/kg, NaF in tubes

## CC/C(=C(\c1ccc(O)cc1)c1ccc(OCCN(C)C(=O)COCCNC(=O)Cc2ccc3c(c2)CN(C2CCC(=O)NC2=O)C3=O)cc1)c1ccccc1 (stereo not shown) [TC-Pr-007]
IV (1 mg/kg), 15 minutes, listed as ENDX PROTAC 7, 1 mg/kg
  Concentration ENDX PROTAC 7: 37.27 ng/mL and 57.95 ng/mL and 30.96 ng/mL
IV (1 mg/kg), 30 minutes, listed as ENDX PROTAC 7, 1 mg/kg
  Concentration ENDX PROTAC 7: 10.89 ng/mL and 19.85 ng/mL and 16.62 ng/mL
IV (1 mg/kg), 120 minutes, listed as ENDX PROTAC 7, 1 mg/kg
  Concentration ENDX PROTAC 7: 8.35 ng/mL and 9.53 ng/mL and 8.69 ng/mL
PO (10 mg/kg), 15 minutes, listed as ENDX PROTAC 7, 10 mg/kg
  Concentration ENDX PROTAC 7: 0.75 ng/mL and 0.7 ng/mL and 0.93 ng/mL
PO (10 mg/kg), 30 minutes, listed as ENDX PROTAC 7, 10 mg/kg
  Concentration ENDX PROTAC 7: 0.64 ng/mL and 0.81 ng/mL and 0.83 ng/mL
PO (10 mg/kg), 360 minutes, listed as ENDX PROTAC 7, 10 mg/kg
  Concentration ENDX PROTAC 7: 0.53 ng/mL and 0.4 ng/mL and 0.44 ng/mL
PO (10 mg/kg), 480 minutes, listed as ENDX PROTAC 7, 10 mg/kg
  Concentration ENDX PROTAC 7: 0.69 ng/mL and 0.37 ng/mL and 0.4 ng/mL
mice, I.V. 1 mg/kg, NaF in tubes
  elimination half-life: 5 h
mice, IV 1 mg/kg, NaF in tubes
  peak plasma concentration: 129.7 ng/mL
  time of peak plasma concentration: ≤ 5 min
mice, oral 10 mg/kg vs IV 1 mg/kg, NaF in tubes
  Oral bioavailability: 0.85%
[1]
  peak plasma concentration: 1.24 ng/mL
  time of peak plasma concentration: ≤ 60 min
